Laboratory results from ChEMBL document CHEMBL1143311, “Structure-activity relationship and studies on the molecular mechanism of leishmanicidal N,C-coupled arylisoquinolinium salts” (J Med Chem, 2009).
Active and inactive are the calls of the source. No cut-off for these calls is given here.

Assays:
[1] = Antiproliferative activity against mouse J774.1 cells after 48 hrs by alamar blue assay; format: cell-based
[2] = Ratio of IC50 for BALB/c mouse peritoneal macrophages to EC50 for Leishmania major MHOM/IL/81/FE/BNI promastigotes
[3] = Selectivity index, ratio of IC50 for mouse J774.1 cells to IC50 for Leishmania major MHOM/IL/81/FE/BNI promastigotes; format: toxicity; conditions: for selectivity ratio: J774.1 cells, read-out: Ratio IC50
[4] = Cytotoxicity against BALB/c mouse peritoneal macrophages after 48 hrs by alamar blue assay; format: cell-based; conditions: Macrophage
Leishmania major [5] = assay: Antileishmanial activity against Leishmania major MHOM/IL/81/FE/BNI promastigotes by alamar blue assay; format: functional, organism-based
Leishmania major [6] = assay: Antileishmanial activity against Leishmania major MHOM/IL/81/FE/BNI promastigotes infected in BALB/c mouse peritoneal macrophages assessed as decrease in infection rate after 48 hrs by fluorescence microscopy; format: functional, organism-based
Albumin = Albumin (Bos taurus, UniProt P02769); assay: Binding affinity to bovine serum albumin by ultrafiltration method; format: ADME; conditions: cattle; for fraction unbound: bovine serum albumin, read-out: PPB (converted)
Sequence of Albumin (P02769 whole entry): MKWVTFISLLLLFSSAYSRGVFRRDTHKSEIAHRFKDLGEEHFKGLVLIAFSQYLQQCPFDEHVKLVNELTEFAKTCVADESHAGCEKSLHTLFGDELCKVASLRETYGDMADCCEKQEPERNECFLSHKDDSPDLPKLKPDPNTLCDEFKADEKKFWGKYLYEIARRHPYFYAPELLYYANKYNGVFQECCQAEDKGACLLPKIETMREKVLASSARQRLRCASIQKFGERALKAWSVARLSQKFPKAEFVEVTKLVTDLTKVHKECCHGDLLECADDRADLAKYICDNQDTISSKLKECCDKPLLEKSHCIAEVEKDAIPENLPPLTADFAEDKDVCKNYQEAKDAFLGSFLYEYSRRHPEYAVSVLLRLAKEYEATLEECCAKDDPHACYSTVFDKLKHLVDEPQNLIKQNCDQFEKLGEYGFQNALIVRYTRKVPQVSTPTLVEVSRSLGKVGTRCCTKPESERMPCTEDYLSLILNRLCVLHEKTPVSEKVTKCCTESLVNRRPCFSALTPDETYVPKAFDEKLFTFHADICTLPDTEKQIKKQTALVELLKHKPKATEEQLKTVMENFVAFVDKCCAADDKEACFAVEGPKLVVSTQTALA

Cytochrome P450 3A4 = Cytochrome P450 3A4 (Homo sapiens, UniProt P08684); assay: Inhibition of human CYP3A4 at 100 uM by LC/ESI-MS analysis; format: ADME
Sequence of Cytochrome P450 3A4 (P08684 whole entry): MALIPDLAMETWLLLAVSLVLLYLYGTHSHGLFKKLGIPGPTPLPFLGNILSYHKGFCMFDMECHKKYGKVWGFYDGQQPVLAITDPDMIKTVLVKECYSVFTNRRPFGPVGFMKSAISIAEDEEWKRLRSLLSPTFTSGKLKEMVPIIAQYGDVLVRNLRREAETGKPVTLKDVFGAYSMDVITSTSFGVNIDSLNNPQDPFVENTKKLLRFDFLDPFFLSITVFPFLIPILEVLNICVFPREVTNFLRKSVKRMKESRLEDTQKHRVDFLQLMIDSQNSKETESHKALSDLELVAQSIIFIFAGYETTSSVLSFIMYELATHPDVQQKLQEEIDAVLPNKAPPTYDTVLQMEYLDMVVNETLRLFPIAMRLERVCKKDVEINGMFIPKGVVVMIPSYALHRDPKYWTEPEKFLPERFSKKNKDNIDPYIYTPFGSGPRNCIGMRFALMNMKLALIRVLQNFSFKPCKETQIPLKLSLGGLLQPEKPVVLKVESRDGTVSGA

Cytochrome P450 2D6 [7] = molecular target: T1, Cytochrome P450 2D6 (Homo sapiens, UniProt P10635); assay: Inhibition of human CYP2D6 at 1 to 100 uM by LC/ESI-MS analysis; format: ADME
T1 sequence (P10635 whole entry): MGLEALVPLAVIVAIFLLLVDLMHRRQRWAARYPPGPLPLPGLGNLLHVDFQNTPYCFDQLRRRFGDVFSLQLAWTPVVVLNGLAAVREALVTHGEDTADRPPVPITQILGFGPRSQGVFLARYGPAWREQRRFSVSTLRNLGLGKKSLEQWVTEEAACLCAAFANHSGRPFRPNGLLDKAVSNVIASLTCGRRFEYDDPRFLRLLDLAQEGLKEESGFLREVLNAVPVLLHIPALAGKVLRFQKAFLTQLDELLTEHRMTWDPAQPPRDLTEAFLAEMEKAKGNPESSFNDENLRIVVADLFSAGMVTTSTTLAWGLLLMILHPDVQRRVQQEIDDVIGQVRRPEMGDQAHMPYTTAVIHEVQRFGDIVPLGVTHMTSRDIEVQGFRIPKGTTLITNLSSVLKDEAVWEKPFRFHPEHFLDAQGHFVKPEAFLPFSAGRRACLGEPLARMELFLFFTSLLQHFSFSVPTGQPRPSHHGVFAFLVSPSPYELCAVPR

Cytochrome P450 2C9 = Cytochrome P450 2C9 (Homo sapiens, UniProt P11712); assay: Inhibition of human CYP2C9 at 100 uM by LC/ESI-MS analysis; format: ADME
Sequence of Cytochrome P450 2C9 (P11712 whole entry): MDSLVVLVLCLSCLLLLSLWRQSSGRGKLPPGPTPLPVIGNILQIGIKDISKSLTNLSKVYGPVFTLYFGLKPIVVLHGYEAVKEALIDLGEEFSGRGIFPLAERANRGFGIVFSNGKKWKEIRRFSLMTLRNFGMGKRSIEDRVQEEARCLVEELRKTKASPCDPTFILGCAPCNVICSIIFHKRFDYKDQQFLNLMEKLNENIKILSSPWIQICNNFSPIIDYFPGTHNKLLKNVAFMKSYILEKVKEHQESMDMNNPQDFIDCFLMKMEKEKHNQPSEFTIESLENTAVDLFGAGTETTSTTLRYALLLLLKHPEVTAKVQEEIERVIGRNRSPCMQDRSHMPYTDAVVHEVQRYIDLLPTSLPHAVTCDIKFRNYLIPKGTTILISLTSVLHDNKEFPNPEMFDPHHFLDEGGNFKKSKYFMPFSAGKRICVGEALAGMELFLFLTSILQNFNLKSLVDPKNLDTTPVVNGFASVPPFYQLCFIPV

Cytochrome P450 2D6 [8] = molecular target: T1, Cytochrome P450 2D6; assay: Inhibition of human CYP2D6 expressed in baculovirus-infected insect cell system; format: ADME
Cytochrome P450 2C19 = Cytochrome P450 2C19 (Homo sapiens, UniProt P33261); assay: Inhibition of human CYP2C19 at 100 uM by LC/ESI-MS analysis; format: ADME
Sequence of Cytochrome P450 2C19 (P33261 whole entry): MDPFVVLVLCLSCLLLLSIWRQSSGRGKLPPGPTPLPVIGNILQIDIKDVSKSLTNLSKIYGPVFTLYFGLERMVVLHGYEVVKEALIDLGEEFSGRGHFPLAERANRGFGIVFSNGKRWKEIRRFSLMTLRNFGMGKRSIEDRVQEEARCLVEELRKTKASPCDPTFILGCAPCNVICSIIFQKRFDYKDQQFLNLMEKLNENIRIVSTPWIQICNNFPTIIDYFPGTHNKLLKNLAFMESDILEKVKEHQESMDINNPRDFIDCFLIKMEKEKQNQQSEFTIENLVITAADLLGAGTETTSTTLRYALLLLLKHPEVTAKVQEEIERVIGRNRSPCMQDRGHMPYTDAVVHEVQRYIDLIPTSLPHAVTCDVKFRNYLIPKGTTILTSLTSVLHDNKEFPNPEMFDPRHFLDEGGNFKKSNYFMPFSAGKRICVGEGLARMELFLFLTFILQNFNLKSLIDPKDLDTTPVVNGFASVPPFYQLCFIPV

Cytochrome P450 2D6 [9] = molecular target: T1, Cytochrome P450 2D6; assay: Inhibition of human CYP2D6 by Lineweaver-Burke plot; format: ADME
[10] = Cytotoxicity against BALB/c mouse DC after 48 hrs by alamar blue assay
Macrophage [11] = assay: Decrease in IL10 secretion in IFN-gamma-stimulated BALB/c mouse peritoneal macrophages infected with Leishmania major MHOM/IL/81/FE/BNI promastigotes at 3 uM after 24 hrs by sandwich ELISA; format: functional, cell-based
Macrophage [12] = assay: Reduction of TNFalpha production in IFN-gamma-stimulated BALB/c mouse peritoneal macrophages infected with Leishmania major MHOM/IL/81/FE/BNI promastigotes at 3 uM after 24 hrs by sandwich ELISA; format: functional, cell-based
Macrophage [13] = assay: Decrease in IL10 secretion in LPS-stimulated BALB/c mouse peritoneal macrophages infected with Leishmania major MHOM/IL/81/FE/BNI promastigotes at 3 uM after 24 hrs by sandwich ELISA; format: functional, cell-based
Leishmania major [14] = assay: Antileishmanial activity against Leishmania major MHOM/IL/81/FE/BNI promastigotes infected in BALB/c mouse peritoneal macrophages assessed as decrease in infection rate after 48 hrs by fluorescence microscopy in presence of interferon-gamma; format: functional, organism-based
Macrophage [15] = assay: Reduction of IL6 production in LPS-stimulated BALB/c mouse peritoneal macrophages infected with Leishmania major MHOM/IL/81/FE/BNI promastigotes at 3 uM after 24 hrs by sandwich ELISA; format: functional, cell-based
Macrophage [16] = assay: Increase in nitric oxide production in LPS-stimulated BALB/c mouse peritoneal macrophages infected with Leishmania major MHOM/IL/81/FE/BNI promastigotes at 3 uM after 48 hrs by […]; format: functional, cell-based
Macrophage [17] = assay: Reduction of IL6 production in IFN-gamma-stimulated BALB/c mouse peritoneal macrophages infected with Leishmania major MHOM/IL/81/FE/BNI promastigotes at 3 uM after 24 hrs by sandwich ELISA; format: functional, cell-based
[18] = Cytotoxicity against mouse NIH/3T3 after 48 hrs by alamar blue assay; format: cell-based; conditions: NIH3T3, 48 h
Macrophage [19] = assay: Reduction of TNFalpha production in LPS-stimulated BALB/c mouse peritoneal macrophages infected with Leishmania major MHOM/IL/81/FE/BNI promastigotes at 3 uM after 24 hrs by sandwich ELISA; format: functional, cell-based

Structure (SMILES)	IC50 ([1]; Mus musculus, J774.1, 48 h) [µM]	selectivity ratio [3]	IC50 (Leishmania major [5]; Leishmania major) [µM]	other results
C[C@@H]1[C@H](O)[C@@H](C)/C=C/C=C/C=C/C=C/C=C/C=C/C=C/[C@H](O[C@@H]2O[C@H](C)[C@@H](O)[C@H](N)[C@@H]2O)C[C@@H]2O[C@](O)(C[C@@H](O)C[C@@H](O)[C@H](O)CC[C@@H](O)C[C@@H](O)CC(=O)O[C@H]1C)C[C@H](O)[C@H]2C(=O)O [AMPHOTERICIN B]	> 70	> 14	5.07	Ratio IC50/EC50 [2]: >1000; IC50 [4]: > 70 µM; EC50 (Leishmania major [6]): 0.075 µM
COc1cc(OC)c2c(C)[n+](-c3ccc4ncccc4c3)c(C)cc2c1	> 100	–	> 100	–
COc1cc(OC)c2c(C)[n+](-c3cccc4cc5ccccc5cc34)c(C)cc2c1	1.69	< 1	–	IC50 (Leishmania major [5]): 1.85 µM
CCCc1ccc(-[n+]2c(C)cc3cc(OC)cc(OC)c3c2C)cc1	5.36	1.14	1.63	–
COc1cc(OC)c2c(C)[n+](-c3cccc4c3C(=O)c3ccccc3C4=O)c(C)cc2c1	> 100	–	> 100	–
COc1cc2c(c(OC)c1)C(C)N(c1ccc(OC)c3c(OC)cc(C)cc13)[C@H](C)C2 (mixture of isomers)	> 100	–	66.7	–
COc1cc(OC)c2c(C)[n+](-c3ccc(C(C)(C)C)cc3)c(C)cc2c1	4.28	1.6	2.67	–
COc1cc2c(c(OC)c1)C(C)N(c1cccc3ccccc13)C(C)C2 (stereo not drawn)	> 100	–	65.6	–
COc1cc(OC)c2c(C)[n+](-c3cccc(C)c3C)c(C)cc2c1	10.5	< 1	11.6	–
CCc1ccc(-[n+]2c(C)cc3cc(OC)cc(OC)c3c2C)cc1	4.5	< 1	5.53	fraction unbound (Albumin): 0.475
COc1cc(OC)c2c(C)[n+](-c3cccc4ccccc34)c(C)cc2c1.[O-][Cl+3]([O-])([O-])[O-]	–	–	–	Activity (Cytochrome P450 3A4): Active; Activity (Cytochrome P450 2D6 [7]): Active; Activity (Cytochrome P450 2C9): Active; IC50 (Cytochrome P450 2D6 [8]): 0.9 µM; Activity (Cytochrome P450 2C19): Active; Ki (Cytochrome P450 2D6 [9]): 0.45 µM; Activity (Albumin; isolated protein): Active
COc1cc(OC)c2c(C)[n+](-c3c(C)cccc3C)c(C)cc2c1.F[B-](F)(F)F	27.3	7.82	3.49	Activity (Cytochrome P450 3A4): Active; Ratio IC50/EC50 [2]: 40; Activity (Cytochrome P450 2D6 [7]): Not Active; IC50 [10]: 8.76 µM; IC50 [4]: 9.67 µM; Activity (Macrophage [11]): Active; Activity (Macrophage [12]): Active; Activity (Cytochrome P450 2C9): Active; Activity (Macrophage [13]): Active; Activity (Leishmania major [14]): Active; Activity (Macrophage [15]): Active; Activity (Cytochrome P450 2C19): Active; EC50 (Leishmania major [6]): 0.241 µM; Activity (Macrophage [16]): inactive; Activity (Macrophage [17]): Active; IC50 [18]: 37.6 µM; fraction unbound (Albumin): 0.538
COc1ccc(-[n+]2c(C)cc3cc(OC)cc(OC)c3c2C)cc1	> 100	–	> 100	–
COc1cc(OC)c2c(C)[n+](-c3ccc(C)cc3C)c(C)cc2c1	4.07	1.24	3.28	–
COc1cc(OC)c2c(C)[n+](-c3ccc(OC(C)=O)cc3)c(C)cc2c1	> 100	–	> 100	–
COc1cc2c(c(OC)c1)C(C)N(c1ccc(OC)c3c(OC)cc(C)cc13)[C@@H](C)C2 (mixture of isomers)	> 100	–	64.8	–

Structure (SMILES)	IC50 ([1]; Mus musculus, J774.1, 48 h) [µM]	selectivity ratio [3]	IC50 (Leishmania major [5]; Leishmania major) [µM]	other results
COc1cc(OC)c2c(C)[n+](-c3ccc(Br)cc3)c(C)cc2c1	2.97	< 1	19.7	–
C=C[C@H]1C[N@@]2CC[C@H]1C[C@@H]2[C@@H](O)c1ccnc2ccc(OC)cc12 [QUINIDINE]	–	–	–	Activity (Cytochrome P450 2C9): Active; Activity (Cytochrome P450 2C19): Active
COc1cc(OC)c2c(C)[n+](-c3ccc4ccccc4c3)c(C)cc2c1	8.13	2.41	3.37	–
COc1cc(OC)c2c(C)[n+](-c3cccc4ccccc34)c(C)cc2c1	4.29	2.63	1.63	–
COc1cc(OC)c2c(C)[n+](-c3c(C)cc(C)cc3C)c(C)cc2c1	4.2	2.82	1.49	–
COc1cc(OC)c2c(C)[n+](-c3ccc(C(C)C)cc3C(C)C)c(C)cc2c1	2.25	4.17	0.54	fraction unbound (Albumin): 0.416
COc1cc(OC)c2c(C)[n+](-c3cccc4cc5ccccc5cc34)c(C)cc2c1.F[B-](F)(F)F	–	–	–	IC50 ([1]; j774.1): 2.95 µM; Ratio IC50 [3]: < 1; IC50 (Leishmania major [5]): 0.72 µM
CCCCc1ccc(-[n+]2c(C)cc3cc(OC)cc(OC)c3c2C)cc1	4.47	< 1	2.69	–
COc1cc(OC)c2c(C)[n+](-c3ccc(Cl)cc3)c(C)cc2c1	3.05	< 1	18.9	–
COc1cc(OC)c2c(C)[n+](-c3ccc(C#N)cc3)c(C)cc2c1	> 100	–	> 100	–
COc1cc(OC)c2c(C)[n+](-c3ccc4scnc4c3)c(C)cc2c1	63.2	–	> 100	fraction unbound (Albumin): 0.671
COc1cc(OC)c2c(C)[n+](-c3ccc(C)cc3)c(C)cc2c1.F[B-](F)(F)F	14.6	5.55	2.64	Activity (Cytochrome P450 3A4): Active; Ratio IC50/EC50 [2]: 138; Activity (Cytochrome P450 2D6 [7]): Active; IC50 [10]: 24 µM; IC50 [4]: 12.8 µM; Activity (Macrophage [11]): inactive; Activity (Macrophage [12]): Active; Activity (Cytochrome P450 2C9): Active; Activity (Macrophage [13]): inactive; IC50 (Cytochrome P450 2D6 [8]): 0.0561 µM; Activity (Leishmania major [14]): Active; Activity (Macrophage [15]): Active; Activity (Macrophage [19]): Active; Activity (Cytochrome P450 2C19): Active; EC50 (Leishmania major [6]): 0.092 µM; Activity (Macrophage [16]): inactive; Ki (Cytochrome P450 2D6 [9]): 0.0281 µM; Activity (Macrophage [17]): Active; IC50 [18]: 49.8 µM; fraction unbound (Albumin): 0.441
COc1cc2c(c(OC)c1)C(C)N(c1ccc(C(C)C)cc1)C(C)C2 (stereo not drawn)	74.7	–	49.9	–
COc1cc(OC)c2c(C)[n+](-c3ccc4cc5ccccc5cc4c3)c(C)cc2c1	0.23	< 1	0.67	–
COc1cc(OC)c2c(C)[n+](-c3ccc(O)cc3)c(C)cc2c1	> 100	–	15.9	–
